Measured values taken from patent publication US8507464B2, “Phosphoramidate alkylator prodrugs” (Threshold Pharmaceuticals, Inc., priority 2005, dated 2013).
In brackets after ≈: the same amount, converted by molar mass. Like-named read-outs stand apart in the source and are kept apart here.

Columns and labels:
[1] = test system: spheroids; assay: Spheroid combination with cisplatin or daunorubicin, clonogenic survival; assay type: cell-based, human; conditions: Homo sapiens, 2 h exposure, read-out: IC50 (μM), spheroids, daunorubicin combination experiment
Protocol: The phosphoramidate alkylator prodrug was combined simultaneously with cisplatin or daunorubicin and the spreroids exposed for 2 h to the combination, followed by measurement of clonogenic survival.

[2] = test system: H460 lung carcinoma spheroids; assay: Spheroid model, clonogenic survival; conditions: Homo sapiens, NCI-H460, 2 h, read-out: IC90 H460 Spheroid 10% O2
[3] = test system: H460 cells exposed as monolayers; assay: Clonogenic survival of monolayer cells (Example 35); conditions: Homo sapiens, NCI-H460, 2 h, read-out: IC90 H460 Monolayer (oxygen column not identifiable)
[4] = test system: HT-29 human colon carcinoma xenograft; assay: HT-29 human colon carcinoma xenograft mouse model (Example 47); assay type: in vivo; conditions: Group 8: 5FU 10 mg/kg; vs vehicle
Protocol: Female CB17/SCID mice (purchased from Charles River, Cambridge, Mass.), 7-8 weeks of age, were allowed to acclimatize for at least three days, and handled under pathogen-free conditions. Human colon carcinoma cell line HT-29 was obtained from the American Type Culture Collection. The cell lines were cultured in RPMI 1640 media supplemented with 10% fetal bovine serum. Cells were maintained in a 37° C. incubator with 5% CO2. The HT-29 cells were harvested from culture and inoculated at 3×10^6 cells/animal in the peritoneal subcutaneous space. When the tumors grew to an average volume of 100 mm^3 (day 8), each group of 10 mice was administered, for three weeks, vehicle alone (saline and PEG (10 mL/kg each), Group 1), Compound 36 alone (dissolved in 30% cyclodextrin in PBS) at a daily dose of 20, 60, or 200 mg/kg (Groups 2, 3 and 4, respectively), and Compound 36 at a daily dose of 20, 60, and 200 mg/kg given 2-3 hours after a dose of 10 mg/kg of 5FU (in saline) (Group 5, 6 and 7, respectively) and compared to a group receiving only 5FU at 10 mg/kg (Group 8) as tabulated below.
The body weight of each mouse was recorded twice per week. Growth of each xenograft was monitored by externally measuring tumors in two dimensions using a digital caliper twice per week. Tumor volume (V) was determined by the following equation: V=(L×W^2)/2, where L is the length and W is the width of a xenograft. Tumor volumes were measured twice weekly.

[5] = 25 mg/kg i.p., 10% PEG, CD-1 mice
[6] = test system: NCI-H460 cells; assay: Antiproliferation assay (Alamar Blue), anoxia vs air
[7] = test system: NCI-H460 cells; assay: Antiproliferation assay - oxygen dependence; assay type: cell-based, human; conditions: Homo sapiens
Excerpt: . […] The calculated IC50 values (μM) are tabulated in Table Y1 (H460 cells) or Table Y2 (HT29 cells) below.

[8] = Solubility in saline at room temperature; assay type: physicochemical; conditions: saline or isotonic
[9] = test system: H460 cell line; assay: Anti-proliferation assay, hypoxia vs normoxia (Table 1A); conditions: for IC50: Homo sapiens

COc1cccc2c1C(=O)c1c(O)c3c(c(O)c1C2=O)C[C@@](O)(C(C)=O)C[C@@H]3O[C@H]1C[C@H](N)[C@H](O)[C@H](C)O1 [Daunorubicin, reference compound] gave an IC50 [1] of 17 µM, an IC90 [2] of 19 µM and an IC90 [3] of 0.16 µM.

In the case of O=c1[nH]cc(F)c(=O)[nH]1 [Compound 5FU, 5-fluoro-2,4(1H,3H)-pyrimidinedione, reference compound], the “% Inhibition vs Group 1” value [4] is reported as 38.7%.

With CC(OP(=O)(NCCBr)NCCBr)c1ncc([N+](=O)[O-])n1C (stereo not shown) [Compound 85] the Cmax [5] was 3930 ng/mL, the Tmax [5] was 5.00 min and the half-life [5] was 10.0 min. It also gave an IC50 ([6]; read-out: IC50 H460 Anoxia, anoxia, 2 h exposure) of 0.7 µM.

Compound Cn1c([N+](=O)[O-])cnc1COP(=O)(NCCCl)NCCCl [Compound 10] has an IC50 ([7]; NCI-H460, read-out: IC50 in H460 cells, 0.1% O2) of over 100 µM, an IC50 ([7]; NCI-H460, read-out: IC50 in H460 cells, 0.6% O2) of over 100 µM and an IC50 ([7]; NCI-H460, read-out: IC50 in H460 cells, 1% O2) of over 100 µM. The IC50 ([7]; NCI-H460, read-out: IC50 in H460 cells, Air) was over 100 µM, the IC50 ([7]; NCI-H460, read-out: IC50 in H460 cells, N2) was over 100 µM and the solubility [8] was 10000 µg/mL (≈ 27.8 mM). For the same compound, the IC50 ([9]; NCI-H460, read-out: Hypoxia P (proliferation IC50)) was 100 µM, the IC50 ([9]; NCI-H460, read-out: Normoxia P (proliferation IC50)) was over 100 µM and the “HCR P” value ([9]; ratio of IC50 in normoxia and hypoxia) was over 1. The IC50 ([6]; Homo sapiens, NCI-H460, 2 h, read-out: IC50 H460 Air, air, 2 h exposure) was over 100 µM and the IC50 ([6]; Homo sapiens, NCI-H460, 2 h, read-out: IC50 H460 Anoxia, anoxia, 2 h exposure) was at least 100 µM.
